Data as given in patent US5840918A, “Isoprenyl transferase inhibitors” (Eisai Co., Ltd., priority 1997, dated 1998).
Entries after “also recorded” stand apart in the source; their conditions may differ.

Tests used:
HT1080 = assay: Inhibition of anchorage-independent tumor cell growth, HT1080; type: cell-based; conditions: Homo sapiens, HT-1080, 336 h; HT1080, 14 days, soft agar
Protocol: (§1) HT1080 is a […] with a N-ras mutation. MIApaca-2 is a pancreatic carcinoma and Sw620 is a colonic carcinoma; each of these has a K-ras mutation. T24 is a bladder carcinoma with a H-ras mutation; and zH1 is a H-ras-transformed NIH/3T3 mouse fibroblast. Additional compounds have been tested and have yielded positive results in these organ-specific or ras-protein specific anchorage-independent tumor cell models.
(§2) Five tumor cell lines were seeded at 600 cells/well (12-well plates) in 0.6 mL of 0.3% Noble agar in culture medium over a bottom agar layer (0.5% Noble agar in culture medium). The culture medium was Dulbecco's modified Eagle's medium (Nissui Pharmaceutical Co., Ltd., Tokyo, Japan), supplemented with 10% heat-inactivated calf serum (GIBCO, Grand Island, N.Y.). A 10 mM stock solution of inhibitor compound PD331 in DMSO was diluted with culture medium to 3× the final concentration and 0.6 mL of the diluted inhibitor solution was overlayed on each well. Controls contained the same amount of DMSO as inhibitor samples. Plates were incubated at 37° C. in 5% CO2 for 14 days. Colonies were counted by replacement of the overlaying medium with 0.6 mL of 2 mg/mL MTT in PBS, incubation for 30 min, and quantitation of scanned photographs. IC50 concentrations for each cell line are shown below in Table 3.

FTase = molecular target: T1, FTase (Bos taurus, UniProt P29702+P49355); assay: Inhibition of FTase-mediated prenylation (in vitro prenylation assay); type: biochemical; conditions: Table 1; partially purified FTase, 3 μM recombinant H-ras, 440 nM [3H]FPP, 15 min 37° C
T1 construct: bovine brain by inference from the cited Moores et al. 1991
Text: (§3) Nanomolar concentrations of the indicated compounds were sufficient to inhibit farnesylation of ras proteins in vitro. For screening candidate compounds useful for the treatment of ras-associated tumors, the FTase assay is preferred. […] Substitutions which confer GGTase specificity as taught herein also produced potent inhibitors of GGTase.

[1] = test system: zH1 (H-ras-transformed NIH/3T3 mouse fibroblast); assay: Inhibition of anchorage-independent tumor cell growth, zH1; type: cell-based; conditions: NIH3T3, 336 h, zH1, 14 days, soft agar
Protocol: as §1, §2

[2] = test system: H-ras (61L) transformed NIH3T3 fibroblast tumors; assay: Inhibition of tumor xenograft in mice, Example D (PD331); type: in vivo, mouse; conditions: for T/C (%) Volume / Tumor Volume: day 14
Protocol: Cells were harvested from exponential-phase maintenance cultures (T-225 cm^2 culture flasks, Corning Inc., Corning, N.Y.) with trypsin-EDTA (GIBCO), centrifuged at 160 ×g for 5 min, washed once with 10 mL cold Hank's balanced salt solution (HBSS, GIBCO), and resuspended at a concentration of 1×10^6 cells/mL. Five week old female athymic nude mice were obtained from SLC (3371-8, Kotoummachi, Hamamatsu-shi, Shizuoka 431-11, Japan) and maintained under pathogen-free conditions. […] Inhibitor compound PD331 was suspended in saline containing 2% Tween-80 in a total injection volume of 0.2 mL. Two dosage concentrations were prepared, 0.3 mg/mouse or 1.0 mg/mouse. Compound PD331 was subcutaneously injected daily at the site of tumor cell implantation for 5 consecutive days, starting approximately 8 h after the implantation (day 0). The control group was injected with vehicle only. Body weight and tumor dimensions were measured at days 7, 10, and 14. Tumor volume was estimated by the following calculation: tumor volume =(0.5)(length×width×width). At day 14, each mouse was euthanized with CO2 (g), and each tumor was excised and weighed. The statistical significance was estimated by the Student's T-test.

MIApaca-2 = assay: Inhibition of anchorage-independent tumor cell growth, MIApaca-2; type: cell-based; conditions: Homo sapiens, MIA PaCa-2, 336 h; MIApaca-2, 14 days, soft agar
Protocol: as §1, §2

[3] = test system: H-ras farnesylation in H-ras (61L) transformed NIH3T3 fibroblasts; assay: Inhibition of H-ras farnesylation in whole cells (Western blot); type: cell-based, mouse; conditions: Mus musculus, NIH3T3, 24 h, Table 2
Protocol: The ability of compounds of the invention to inhibit H-ras farnesylation and rap1 geranylgeranylation in whole cells was determined. H-ras (61L) transformed NIH3T3 fibroblasts were generously provided by C. Der, Univ. N. Carolina. These fibroblasts were treated for 24 h with 50 μM lovastatin (control) or the indicated concentrations of inhibitor. The cells were lysed in 1% NP-40, 5 mM Tris-HCl (pH 8.0), 5 mM EDTA, 0.1 mM N-tosyl-L-phenylalanine chloromethyl ketone, 0.1 mM N-tosyl-L-lysine chloromethyl ketone, and 1 mM phenylmethylsulfonyl fluoride. The lysate was centrifuged (15000×g, 5 min.) and the supernatant was used as a cell extract. […] After transfer to IMMOBILON P™ membrane (Millipore), the blots were probed with LA069 mouse monoclonal antibody to H-ras (Quality Biotech), or rabbit polyclonal antibody to rap1/Krev (Santa Cruz Biotechnology). All Western blots were developed using ECL chemiluminescent reagents (Amersham).

T24 = assay: Inhibition of anchorage-independent tumor cell growth, T24; type: cell-based; conditions: Homo sapiens, T-24, 336 h; T24, 14 days, soft agar
Protocol: as §1, §2

Sw620 = assay: Inhibition of anchorage-independent tumor cell growth, Sw620; type: cell-based; conditions: Homo sapiens, SW-620, 336 h; Sw620, 14 days, soft agar
Protocol: as §1, §2

GGTase = assay: Inhibition of GGTase-mediated prenylation (in vitro prenylation assay); type: biochemical; conditions: Table 1; partially purified GGTase, 5 μM recombinant H-ras (61L, CAIL), 1 μM [3H] geranylgeranyl diphosphate
Text: as §3

[4] = test system: H-ras (61L) transformed NIH3T3 fibroblast tumors; assay: Inhibition of tumor xenograft in mice, Example E (PM061); type: in vivo, mouse; conditions: for T/C (%) Volume / Tumor Volume: day 15
Protocol: H-ras (61L) transformed NIH3T3 fibroblasts were grown in Dulbecco's modified Eagle's medium supplemented with 10% heat-inactivated calf serum. 100 U/mL penicillin, 100 μg/mL streptomycin, and 0.75 mg/mL G418 (GIBCO) and incubated at 37° C. in 5% CO2. Cells were harvested from exponential-phase maintenance cultures (T-225 cm^2 culture flasks, Corning Inc., Corning, N.Y.) with trypsin-EDTA (GIBCO), centrifuged at 160 ×g for 5 min, washed once with 10 mL cold Hank's balanced salt solution (HBSS, GIBCO), and resuspended at a concentration of 1×10^6 cells/mL.
Five week old female athymic nude mice were obtained from SLC (3371-8, Kotoummachi, Hamamatsu-shi, Shizuoka 431-11, Japan) and maintained under pathogen-free conditions. The mice were subcutaneously injected in the lateral flank with 1×10^5 H-ras transformed cells/mouse.
Inhibitor compound PD331 was suspended in saline containing 2% Tween-80 in a total injection volume of 0.2 mL. Two dosage concentrations were prepared, 0.3 mg/mouse or 1.0 mg/mouse. Compound PD331 was subcutaneously injected daily at the site of tumor cell implantation for 5 consecutive days, starting approximately 8 h after the implantation (day 0). The control group was injected with vehicle only. Body weight and tumor dimensions were measured at days 7, 10, and 14. Tumor volume was estimated by the following calculation: tumor volume =(0.5)(length×width×width). At day 14, each mouse was euthanized with CO2 (g), and each tumor was excised and weighed. The statistical significance was estimated by the Student's T-test.
The same in vivo experiment as Example D above was performed, using compound PM061. Instead of 0.3 mg/mouse and 1.0 mg/mouse, three injection concentrations were prepared (0.5 mg/mouse, 1.0 mg/mouse, and 2.0 mg/mouse). Body weight and tumor size were measured at days 7, 10, and 15. Tumors were excised at day 15.

[5] = 0.3 mg/mouse s.c. daily for 5 days
[6] = 1.0 mg/mouse s.c. daily for 5 days

CSCC[C@H](NC(=O)C(/C=C\[C@@H](/C=C/[C@@H](N)CS)C(C)C)Cc1ccccc1)C(=O)O (stereo partly shown) [PD331]
IC50 (HT1080): 1.8 µM | IC50 (FTase): 0.011 µM | IC50 [1]: 0.6 µM | T/C (%) Volume [2, 5]: 53.3% | Tumor Volume [2, 5]: 871.28 ± 526.90 µL | T/C (%) Volume [2, 6]: 16.5% | Tumor Volume [2, 6]: 269.55 ± 292.95 µL | weight and volume of tumors versus control group ([2]; every concentration): both the weight and the volume of the tumors from the treated group were less than the weight and volume of tumors from the control group | effect on H-ras tumor growth in mice ([2]; mouse, in vivo): has a significant effect on H-ras tumor growth in mice; also recorded: effectively inhibited the growth of ras-associated tumors in mice | IC50 (MIApaca-2): 19 µM | IC50 [3]: 0.4 µM | IC50 (T24): 0.3 µM | IC50 (Sw620): 22 µM | IC50 (GGTase): 0.013 µM

CSCC[C@H](NC(=O)c1cc(C/C=C/C(N)CS)ccc1-c1ccccc1)C(=O)O (stereo partly shown) [PM061]
IC50 (FTase): 0.007 µM | IC50 [3]: 4.8 µM | IC50 (GGTase): 0.144 µM | T/C (%) Volume ([4]; 0.5 mg/mouse s.c.): 90.3% | Tumor Volume ([4]; 0.5 mg/mouse s.c.): 2360.4 ± 645.0 µL | T/C (%) Volume ([4]; 1.0 mg/mouse s.c.): 101.8% | Tumor Volume ([4]; 1.0 mg/mouse s.c.): 2660.3 ± 756.4 µL | T/C (%) Volume ([4]; 2.0 mg/mouse s.c.): 53.6% | Tumor Volume ([4]; 2.0 mg/mouse s.c.): 1400.6 ± 703.2 µL | tumor volume as % of the tumor volume in the control mouse ([4]; injection of 2.0 mg): 53.2% | effect on H-ras tumor growth in mice ([4]; mouse, in vivo): had a significant effect on H-ras tumor growth in mice; also recorded: effectively inhibited the growth of ras-associated tumors in mice

CSCCC(NC(=O)c1cc(CC=CC(N)CSSCC(N)C=CCc2ccc(-c3ccccc3)c(C(=O)NC(CCSC)C(=O)O)c2)ccc1-c1ccccc1)C(=O)O (stereo not shown) [PM141]
IC50 (FTase): 0.0001 µM | IC50 [3]: 9.7 µM | IC50 (GGTase): 0.016 µM

COc1ccccc1-c1ccc(C/C=C/C(N)CS)cc1C(=O)N[C@@H](CCSC)C(=O)O (stereo partly shown) [PM142]
IC50 (FTase): 0.008 µM | IC50 [3]: 1.1 µM | IC50 (GGTase): 0.072 µM

CCOC(=O)[C@H](CCSC)NC(=O)c1cc(C/C=C/C(N)CS)ccc1-c1ccccc1 (stereo partly shown) [PM151]
IC50 (FTase): 0.605 µM | IC50 [3]: 2.9 µM | IC50 (GGTase): 3.87 µM

NC(/C=C/Cc1ccc(-c2ccsc2)c(C(=O)N[C@@H](Cc2cccs2)C(=O)O)c1)CS (stereo partly shown) [PM152]
IC50 (FTase): 0.038 µM | IC50 [3]: 40.3 µM | IC50 (GGTase): 0.27 µM

CS(=O)(=O)CC[C@H](NC(=O)c1cc(C/C=C/C(N)CS)ccc1-c1ccccc1)C(=O)O (stereo partly shown) [PM161]
IC50 (FTase): 0.0009 µM | IC50 [3]: 18.9 µM | IC50 (GGTase): 2.14 µM

CSCC[C@H](NC(=O)c1cc(CCCC(N)CS)ccc1-c1ccsc1)C(=O)O (stereo partly shown) [PM162]
IC50 (FTase): 0.0018 µM | IC50 [3]: 13.1 µM | IC50 (GGTase): 0.12 µM

NC(/C=C/Cc1ccc(-c2ccccc2)c(C(=O)N[C@@H](Cc2ccccc2)C(=O)O)c1)CS (stereo partly shown) [PM172]
IC50 (FTase): 0.056 µM | IC50 [3]: > 100 µM | IC50 (GGTase): 0.123 µM

CSCC[C@H](NC(=O)c1cc(C/C=C/C(N)CS)ccc1-c1cccs1)C(=O)O (stereo partly shown) [PM182]
IC50 (FTase): 0.017 µM | IC50 [3]: 2.7 µM | IC50 (GGTase): 0.52 µM

COC(=O)[C@H](CCSC)NC(=O)c1cc(C/C=C/C(N)CS)ccc1-c1ccsc1 (stereo partly shown) [PM192]
IC50 (FTase): 0.28 µM | IC50 [3]: 0.23 µM | IC50 (GGTase): 3.79 µM

COC(=O)[C@H](CCS(C)(=O)=O)NC(=O)c1cc(C/C=C/C(N)CS)ccc1-c1ccsc1 (stereo partly shown) [PM202]
IC50 (FTase): 0.016 µM | IC50 [3]: 1.2 µM | IC50 (GGTase): 7.42 µM

CCc1ccc(C/C=C/C(N)CS)cc1C(=O)N[C@@H](CCSC)C(=O)OC (stereo partly shown) [PM212]
IC50 (FTase): 0.056 µM | IC50 [3]: 0.045 µM | IC50 (GGTase): 1.84 µM

COC(=O)[C@H](CCSC)NC(=O)C(Cc1ccccc1)SC[C@@H](/C=C/C(N)CS)C(C)C (stereo partly shown) [PT011]
IC50 (FTase): 0.043 µM | IC50 [3]: 0.023 µM | IC50 (GGTase): 0.638 µM
